Reference: patent US12495798B2, “Nicotinamide compound and herbicidal composition comprising compound” (KOREA RESEARCH INSTITUTE OF CHEMICAL TECHNOLOGY, priority 2019, dated 2025)

Tests used:
Format in all cases: in vivo
fall panicum [1] = test: Herbicidal activity test against upland field weeds (soil treatment test); set-up: key to Soil treatment herbicidal activity, Fall panicum: 0 (no control); 100 (complete control); details: scale 0 (no control) to 100 (complete control); for pest or weed control at 50 g/ha: Panicum dichotomiflorum
Outline: (§1)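 Pre-emergence test: seeds or rootstocks were sown in fertilized sandy loam, and the next day the soil surface was sprayed with compound at 50 or 75 g a.i./ha in 50% acetone/0.1% Tween-20. Plants were grown in a greenhouse (30±5 °C, 14/10 h light/dark), then visually scored 0–100 against untreated at 14 d (21 d if needed).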

rice = test: Phytotoxicity test for upland field crops (foliar treatment test); set-up: key: 0 (no harm); 9 (complete withered)
Outline: (§2)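 Application rate ranged 19˜300 g a.i./ha, delivered as a foliar spray (100 ml/m^2) in 33% acetone with 0.1% Tween-20 to crops raised at 30±5 °C under 14/10 h light/dark. Symptoms were assessed 7 and 14 days post-treatment, extending to 21 days where necessary, using a 0–9 injury grade relative to untreated control.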

cotton = test: as above; set-up: key: 0 (no harm); 9 (complete withered)
Outline: as §2

corn = test: as above; set-up: key: 0 (no harm); 9 (complete withered)
Outline: as §2

soybean = test: as above; set-up: key: 0 (no harm); 9 (complete withered)
Outline: as §2

indian jointvetch = test: Herbicidal activity test against upland field weeds (soil treatment test); set-up: key to Soil treatment herbicidal activity, Indian jointvetch: 0 (no control); 100 (complete control); details: scale 0 (no control) to 100 (complete control)
Outline: as §1

fall panicum [2] = test: Herbicidal activity test against upland field weeds (foliar treatment test); details: scale 0-100
Outline: (§3)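 Weeds were raised from seed or rootstocks in horticultural soil in a greenhouse (30±5° C., 14/10 h light/dark), then foliage was hand-sprayed with compound at 50 or 75 g a.i./ha in 50% acetone with 0.1% Tween-20. Control was scored visually 0–100 against untreated plants after 14 days, or 21 if needed.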

sorghum = test: Herbicidal activity test against upland field weeds (soil treatment test); set-up: key to Soil treatment herbicidal activity, Sorghum: 0 (no control); 100 (complete control); details: scale 0 (no control) to 100 (complete control); for plant injury at 50 g/ha / Soil treatment herbicidal activity, Sorghum: 50 g ai/ha
Outline: as §1

crabgrass [3] = test: Herbicidal activity test against upland field weeds (foliar treatment test); details: scale 0-100
Outline: as §3

barnyard grass = test: as above; set-up: key to Foliar treatment herbicidal activity, barnyard grass: 0 (no control); 100 (complete control); details: scale 0-100; for Foliar treatment herbicidal activity, barnyard grass / pest or weed control at 50 g/ha: 50 g ai/ha
Outline: as §3

bindweed = test: Herbicidal activity test against upland field weeds (soil treatment test); set-up: key to Soil treatment herbicidal activity, Bindweed: 0 (no control); 100 (complete control); details: scale 0 (no control) to 100 (complete control)
Outline: as §1

quack grass = test: as above; set-up: key to Soil treatment herbicidal activity, quack grass: 0 (no control); 100 (complete control); details: scale 0 (no control) to 100 (complete control)
Outline: as §1

black nightshade = test: Herbicidal activity test against upland field weeds (foliar treatment test); set-up: key to Foliar treatment herbicidal activity, black nightshade: 0 (no control); 100 (complete control); details: scale 0-100
Outline: as §3

crabgrass [4] = test: Herbicidal activity test against upland field weeds (soil treatment test); set-up: key to Soil treatment herbicidal activity, Crabgrass: 0 (no control); 100 (complete control); details: scale 0 (no control) to 100 (complete control)
Outline: as §1

[5] = 50 g ai/ha, Rice (7 days after treatment)
[6] = 50 g ai/ha, Rice (14 days after treatment)
[7] = 100 g ai/ha, Rice (7 days after treatment)
[8] = 100 g ai/ha, Rice (14 days after treatment)
[9] = 50 g ai/ha, Cotton (7 days after treatment)
[10] = 50 g ai/ha, Cotton (14 days after treatment)
[11] = 100 g ai/ha, Cotton (7 days after treatment)
[12] = 100 g ai/ha, Cotton (14 days after treatment)
[13] = 50 g ai/ha, Corn (7 days after treatment)
[14] = 50 g ai/ha, Corn (14 days after treatment)
[15] = 100 g ai/ha, Corn (7 days after treatment)
[16] = 100 g ai/ha, Corn (14 days after treatment)
[17] = 50 g ai/ha, Soybean (7 days after treatment)
[18] = 50 g ai/ha, Soybean (14 days after treatment)
[19] = 100 g ai/ha, Soybean (7 days after treatment)
[20] = 100 g ai/ha, Soybean (14 days after treatment)
[21] = Panicum dichotomiflorum, 50 g ai/ha
[22] = Digitaria sanguinalis, 50 g ai/ha
[23] = Digitaria sanguinalis, 75 g ai/ha

## Cn1nnc(COCc2nc(C(F)(F)F)ccc2C(=O)N(C(=O)c2ccccc2)c2nnnn2C)n1 [Compound No. 2-68, N-benzoyl-N-(1-methyl-1H-tetrazol-5-yl)-2-(((2-methyl-2H-tetrazol-5-yl)methoxy)methyl)-6-(trifluoromethyl)nicotinamide]
Fall panicum [1]; 50 g ai/ha
  pest or weed control at 50 g/ha: 90%
rice; [5]
  Foliar treatment phytotoxicity, Rice: 6
rice; [6]
  Foliar treatment phytotoxicity, Rice: 5
rice; [7]
  Foliar treatment phytotoxicity, Rice: 6
rice; [8]
  Foliar treatment phytotoxicity, Rice: 8
cotton; [9]
  Foliar treatment phytotoxicity, Cotton: 4
cotton; [10]
  Foliar treatment phytotoxicity, Cotton: 9
cotton; [11]
  Foliar treatment phytotoxicity, Cotton: 5
cotton; [12]
  Foliar treatment phytotoxicity, Cotton: 9
corn; [13]
  Foliar treatment phytotoxicity, Corn: 4
corn; [14]
  Foliar treatment phytotoxicity, Corn: 4
corn; [15]
  Foliar treatment phytotoxicity, Corn: 6
corn; [16]
  Foliar treatment phytotoxicity, Corn: 6
soybean; [17]
  Foliar treatment phytotoxicity, Soybean: 5
soybean; [18]
  Foliar treatment phytotoxicity, Soybean: 5
soybean; [19]
  Foliar treatment phytotoxicity, Soybean: 6
soybean; [20]
  Foliar treatment phytotoxicity, Soybean: 7
Indian jointvetch; 50 g ai/ha
  Soil treatment herbicidal activity, Indian jointvetch: 100
Fall panicum [2]; [21]
  pest or weed control at 50 g/ha: 98%
sorghum; Sorghum
  plant injury at 50 g/ha: 40%
Crabgrass [3]; [22]
  pest or weed control at 50 g/ha: 98%
Barnyard grass
  Foliar treatment herbicidal activity, barnyard grass: 100
bindweed; 50 g ai/ha
  Soil treatment herbicidal activity, Bindweed: 0
Quack grass; 50 g ai/ha
  Soil treatment herbicidal activity, quack grass: 0
Black nightshade; 50 g ai/ha
  Foliar treatment herbicidal activity, black nightshade: 100
Crabgrass [4]; 50 g ai/ha
  Soil treatment herbicidal activity, Crabgrass: 100

## Cn1nnc(COCc2nc(C(F)(F)F)ccc2C(=O)N(c2nnnn2C)S(C)(=O)=O)n1 [Compound No. 2-69, N-(1-methyl-1H-tetrazol-5-yl)-2-(((2-methyl-2H-tetrazol-5-yl)methoxy)methyl)-N-(methylsulfonyl)-6-(trifluoromethyl)nicotinamide]
Fall panicum [1]; 50 g ai/ha
  pest or weed control at 50 g/ha: 98%
rice; [5]
  Foliar treatment phytotoxicity, Rice: 6
rice; [6]
  Foliar treatment phytotoxicity, Rice: 7
cotton; [9]
  Foliar treatment phytotoxicity, Cotton: 4
cotton; [10]
  Foliar treatment phytotoxicity, Cotton: 9
corn; [13]
  Foliar treatment phytotoxicity, Corn: 4
corn; [14]
  Foliar treatment phytotoxicity, Corn: 3
soybean; [17]
  Foliar treatment phytotoxicity, Soybean: 6
soybean; [18]
  Foliar treatment phytotoxicity, Soybean: 6
Indian jointvetch; 50 g ai/ha
  Soil treatment herbicidal activity, Indian jointvetch: 100
Fall panicum [2]; [21]
  pest or weed control at 50 g/ha: 60%
sorghum; Sorghum
  plant injury at 50 g/ha: 70%
Crabgrass [3]; [22]
  pest or weed control at 50 g/ha: 70%
Barnyard grass; Echinochloa crus-galli
  pest or weed control at 50 g/ha: 70%
bindweed; 50 g ai/ha
  pest or weed control at 50 g/ha: 70%
Quack grass; 50 g ai/ha
  Soil treatment herbicidal activity, quack grass: 0
Black nightshade; Solanum nigrum, 50 g ai/ha
  pest or weed control at 50 g/ha: 95%
Crabgrass [4]; [22]
  pest or weed control at 50 g/ha: 98%

## CCOC(=O)OC(C)N(C(=O)c1ccc(C(F)(F)F)nc1COCc1nnn(C)n1)c1nnnn1C (stereo not shown) [Compound No. 4-8, ethyl(1-(N-(1-methyl-1H-tetrazol-5-yl)-2-(((2-methyl-2H-tetrazol-5-yl)methoxy)methyl)-6-(trifluoromethyl)nicotinamido)ethyl)carbonate]
Fall panicum [1]; 50 g ai/ha
  Soil treatment herbicidal activity, Fall panicum: 0
rice; [5]
  Foliar treatment phytotoxicity, Rice: 0
rice; [6]
  Foliar treatment phytotoxicity, Rice: 0
rice; [7]
  Foliar treatment phytotoxicity, Rice: 0
rice; [8]
  Foliar treatment phytotoxicity, Rice: 0
cotton; [9]
  Foliar treatment phytotoxicity, Cotton: 0
cotton; [10]
  Foliar treatment phytotoxicity, Cotton: 0
cotton; [11]
  Foliar treatment phytotoxicity, Cotton: 0
cotton; [12]
  Foliar treatment phytotoxicity, Cotton: 0
corn; [13]
  Foliar treatment phytotoxicity, Corn: 0
corn; [14]
  Foliar treatment phytotoxicity, Corn: 0
corn; [15]
  Foliar treatment phytotoxicity, Corn: 0
corn; [16]
  Foliar treatment phytotoxicity, Corn: 0
soybean; [17]
  Foliar treatment phytotoxicity, Soybean: 0
soybean; [18]
  Foliar treatment phytotoxicity, Soybean: 0
soybean; [19]
  Foliar treatment phytotoxicity, Soybean: 0
soybean; [20]
  Foliar treatment phytotoxicity, Soybean: 0
Indian jointvetch; 50 g ai/ha
  Soil treatment herbicidal activity, Indian jointvetch: 100
Fall panicum [2]; 50 g ai/ha
  Foliar treatment herbicidal activity, Fall panicum: 80
sorghum
  Soil treatment herbicidal activity, Sorghum: 70
Crabgrass [3]; 50 g ai/ha
  Foliar treatment herbicidal activity, Crabgrass: 98
Barnyard grass
  Foliar treatment herbicidal activity, barnyard grass: 98
bindweed; 50 g ai/ha
  Soil treatment herbicidal activity, Bindweed: 0
Quack grass; 50 g ai/ha
  Soil treatment herbicidal activity, quack grass: 0
Black nightshade; 50 g ai/ha
  Foliar treatment herbicidal activity, black nightshade: 100
Crabgrass [4]; 50 g ai/ha
  Soil treatment herbicidal activity, Crabgrass: 100

## CN(Cc1nnn(C)n1)c1nc(C(F)(F)F)ccc1C(=O)Nc1nnnn1C [Compound No. 2-26, 2-(methyl((2-methyl-2H-tetrazol-5-yl)methyl)amino)-N-(1-methyl-1H-tetrazol-5-yl)-6-(trifluoromethyl)nicotinamide]
Fall panicum [1]; 75 g ai/ha
  Soil treatment herbicidal activity, Fall panicum: 100
cotton; [9]
  Foliar treatment phytotoxicity, Cotton: 1
cotton; [10]
  Foliar treatment phytotoxicity, Cotton: 4
cotton; [11]
  Foliar treatment phytotoxicity, Cotton: 2
cotton; [12]
  Foliar treatment phytotoxicity, Cotton: 4
corn; [13]
  Foliar treatment phytotoxicity, Corn: 0
corn; [14]
  Foliar treatment phytotoxicity, Corn: 0
corn; [15]
  Foliar treatment phytotoxicity, Corn: 0
corn; [16]
  Foliar treatment phytotoxicity, Corn: 0
soybean; [17]
  Foliar treatment phytotoxicity, Soybean: 3
soybean; [18]
  Foliar treatment phytotoxicity, Soybean: 9
soybean; [19]
  Foliar treatment phytotoxicity, Soybean: 4
soybean; [20]
  Foliar treatment phytotoxicity, Soybean: 9
Indian jointvetch; 75 g ai/ha
  Soil treatment herbicidal activity, Indian jointvetch: 100
Fall panicum [2]; Panicum dichotomiflorum, 75 g ai/ha
  pest or weed control at 75 g/ha: 70%
sorghum; Sorghum, 75 g ai/ha
  plant injury at 75 g/ha: 20%
Crabgrass [3]; [23]
  pest or weed control at 75 g/ha: 95%
Barnyard grass; Echinochloa crus-galli, 75 g ai/ha
  pest or weed control at 75 g/ha: 98%
bindweed; 75 g ai/ha
  Soil treatment herbicidal activity, Bindweed: 100
Quack grass; 75 g ai/ha
  Soil treatment herbicidal activity, quack grass: 0
Black nightshade; 75 g ai/ha
  Foliar treatment herbicidal activity, black nightshade: 100
Crabgrass [4]; [23]
  pest or weed control at 75 g/ha: 98%

## Cn1ncnc1COc1nc(C(F)(F)F)ccc1C(=O)Nc1nnnn1C [Compound No. 1-45, 2-((1-methyl-1H-1,2,4-triazol-5-yl)methoxy)-N-(1-methyl-1H-tetrazol-5-yl)-6-(trifluoromethyl)nicotinamide]
Fall panicum [1]; 50 g ai/ha
  pest or weed control at 50 g/ha: 98%
rice; [5]
  Foliar treatment phytotoxicity, Rice: 6
rice; [6]
  Foliar treatment phytotoxicity, Rice: 9
rice; [7]
  Foliar treatment phytotoxicity, Rice: 6
rice; [8]
  Foliar treatment phytotoxicity, Rice: 9
cotton; [9]
  Foliar treatment phytotoxicity, Cotton: 5
cotton; [10]
  Foliar treatment phytotoxicity, Cotton: 9
cotton; [11]
  Foliar treatment phytotoxicity, Cotton: 5
cotton; [12]
  Foliar treatment phytotoxicity, Cotton: 9
corn; [13]
  Foliar treatment phytotoxicity, Corn: 1
corn; [14]
  Foliar treatment phytotoxicity, Corn: 0
corn; [15]
  Foliar treatment phytotoxicity, Corn: 3
corn; [16]
  Foliar treatment phytotoxicity, Corn: 2
soybean; [17]
  Foliar treatment phytotoxicity, Soybean: 6
soybean; [18]
  Foliar treatment phytotoxicity, Soybean: 7.5
soybean; [19]
  Foliar treatment phytotoxicity, Soybean: 7
soybean; [20]
  Foliar treatment phytotoxicity, Soybean: 9
Indian jointvetch; 50 g ai/ha
  Soil treatment herbicidal activity, Indian jointvetch: 0
Fall panicum [2]; [21]
  pest or weed control at 50 g/ha: 95%
sorghum
  Soil treatment herbicidal activity, Sorghum: 0
Crabgrass [3]; [22]
  pest or weed control at 50 g/ha: 95%
Barnyard grass; Echinochloa crus-galli
  pest or weed control at 50 g/ha: 95%
bindweed; 50 g ai/ha
  Soil treatment herbicidal activity, Bindweed: 0
Quack grass; 50 g ai/ha
  Soil treatment herbicidal activity, quack grass: 0
Black nightshade; 50 g ai/ha
  Foliar treatment herbicidal activity, black nightshade: 100
Crabgrass [4]; 50 g ai/ha
  Soil treatment herbicidal activity, Crabgrass: 100
